In publication PMC2744866 (Journal of medicinal chemistry, 2009):
“Also recorded” adds a separate entry of the source.

Legend:
human recombinant BHMT [1] = target: T1, human recombinant BHMT (Homo sapiens, UniProt Q93088); assay: BHMT inhibition assay; type: biochemical; conditions: for inhibition of BHMT, in words: qualitative statement; for % Inhibition (average of triplicates): 20 μM inhibitor, 0.25 mM betaine, 0.1 mM DL-homocysteine, pH 7.5, 37 °C
T1 sequence (Q93088 1-406): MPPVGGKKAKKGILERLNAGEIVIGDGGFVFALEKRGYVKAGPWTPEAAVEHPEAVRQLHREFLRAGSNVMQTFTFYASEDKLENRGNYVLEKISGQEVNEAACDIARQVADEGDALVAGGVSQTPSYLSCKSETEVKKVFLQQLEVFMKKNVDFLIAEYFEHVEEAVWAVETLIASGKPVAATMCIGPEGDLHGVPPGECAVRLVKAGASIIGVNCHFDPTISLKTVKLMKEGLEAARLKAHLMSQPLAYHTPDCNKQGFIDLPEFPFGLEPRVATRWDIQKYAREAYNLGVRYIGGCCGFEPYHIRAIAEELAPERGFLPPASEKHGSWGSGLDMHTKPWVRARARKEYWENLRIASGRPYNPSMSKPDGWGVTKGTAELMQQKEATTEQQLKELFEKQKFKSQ

[2] = 1H and 13C NMR pH titration; type: physicochemical; conditions: NMR titration over broad pH range
human recombinant BHMT [3] = target: T1, human recombinant BHMT; assay: Isothermal titration calorimetry of inhibitor binding to BHMT; conditions: ITC
[4] = pH 7.5, read-out: % Inhibition (average of triplicates)

inhibition of BHMT, in words (human recombinant BHMT [1]) | Structure (SMILES) | further results
very weak inhibitor | NC(CCSSCCCC(=O)O)C(=O)O (racemic) [Compound 5, (RS)-2-Amino-4-[(3-carboxypropyl)disulfanyl]butanoic acid] | –
did not inhibit BHMT at all | C[N+](C)(CCCSCCC(N)C(=O)O)CC(=O)[O-] (racemic) [Compound 18, (RS)-2-{[3-(3-Amino-3-carboxypropylthio)propyl]dimethylammonio}acetate] | –
moderate inhibitory potency | NC(CCSCSCCC(=O)O)C(=O)O (racemic) [Compound 6, (RS)-2-Amino-4-[(2-carboxyethylthio)methylthio]butanoic Acid] | –
low inhibitory potency | NC(CCCSCCCC(=O)O)C(=O)O (racemic) [Compound 7, (RS)-2-Amino-5-(3-carboxypropylthio)pentanoic Acid] | –
only a modest inhibitor | CN(CCCSCCC(N)C(=O)O)CC(=O)O (racemic) [Compound 19, (RS)-2-Amino-4-{3-[(carboxymethyl)(methyl)amino]propylthio}butanoic Acid] | –

The remaining lines, values behind:

Structure (SMILES) | inhibition of BHMT, in words (human recombinant BHMT [1]) | further results
NC(CC[Se]CCCCC(=O)O)C(=O)O (racemic) [Compound 9, (RS)-5-(3-Amino-3-carboxypropylselanyl)pentanoic Acid] | strongly inhibited | fold weaker than compound 1 (human recombinant BHMT [1]; compared with reference inhibitor 1): 5 fold
C[N+](C)(CSCCC(N)C(=O)O)CC(=O)[O-] (racemic) [Compound 11, (RS)-2-{[(3-Amino-3-carboxypropylthio)methyl]dimethylammonium}acetate] | – | % Inhibition (average of triplicates) (human recombinant BHMT [1]): completely inactive
C[C@@H](CCSCC[C@@H](N)C(=O)O)CC(=O)O (racemic) [Compound 20] | highly potent inhibitors; also recorded: equipotent | –
NC(CCSCCCCC(=O)O)C(=O)O (stereo not shown) [Compound 1, reference compound] | – | inhibition at 1 µM (human recombinant BHMT [1]; [4]): 97.6%; inhibition at 20 µM (human recombinant BHMT [1]; [4]): 100%
C[N+](C)(CCSCCC(N)C(=O)O)CC(=O)[O-] (racemic) [Compound 12, (RS)-2-{[2-(3-Amino-3-carboxypropylthio)ethyl]dimethylammonium}acetate] | – | % Inhibition (average of triplicates) (human recombinant BHMT [1]): very weak inhibition
NC(CCCCCCCC(=O)O)C(=O)O (racemic) [Compound 10, (RS)-2-Aminodecanedioic Acid] | almost inactive | –
NC(CCSCCNCC(=O)O)C(=O)O (racemic) [Compound 16, (RS)-2-Amino-4-[2-(carboxymethylamino)ethylthio]butanoic Acid] | – | pK2 of secondary/tertiary amino group [2]: ~9.5
CN(CCSCCC(N)C(=O)O)CC(=O)O (racemic) [Compound 13, (RS)-2-Amino-4-{2-[(carboxymethyl)(methyl)amino]ethylthio}-butanoic Acid] | promising, but still moderate, inhibition | pK2 of secondary/tertiary amino group [2]: ~9.5
NC(CCOCCCCC(=O)O)C(=O)O (racemic) [Compound 8, (RS)-5-(3-Amino-3-carboxypropoxy)pentanoic Acid] | almost inactive | –
CC(C)(CCSCCC(N)C(=O)O)CC(=O)O (racemic) [Compound 21] | highly potent inhibitors | enthalpic contribution ΔH (human recombinant BHMT [3]; 25 °C, pH 7.5): -29.5 ± 1.2 kcal/mol; entropic contribution −TΔS (human recombinant BHMT [3]; 25 °C, pH 7.5): 19.6 ± 1.3 kcal/mol; association constant Ka (human recombinant BHMT [3]; 25 °C, pH 7.5, S-enantiomer): (2.0 ± 0.6) × 10^7 M^−1; stoichiometry of the main interaction (human recombinant BHMT [3]; inhibitor per BHMT monomer): 1.1 ± 0.1
